In the assay the test system is T1, Chick pea β-galactosidase (CpGAL).
T1 construct: native enzyme purified from dry seeds (local market), homogeneous on SDS-PAGE; soluble (free) form
Put plainly: steady-state kinetics, Lineweaver-Burk plot. It counts as biochemical, Cicer arietinum. Conditions: soluble enzyme; optimum pH 2.8, 60 °C printed; pH of the Km assay not stated; read-out: Soluble / ONPG. The text has this:
steady-state kinetics, Lineweaver-Burk plot on Chick pea β-galactosidase (CpGAL)

Turning to `O=[N+]([O-])c1ccccc1O[C@@H]1O[C@H](CO)[C@H](O)[C@H](O)[C@H]1O` [ONPG], the Km amounted to 1730 µM.

The record behind these values is paper PMC3399898, “Immobilization of β-Galactosidase onto Functionalized Graphene Nano-sheets Using Response Surface Methodology and Its Analytical Applications” (PLoS ONE, 2012).
